Biological target: T1, ERα (Homo sapiens, UniProt P03372)
T1 sequence (P03372 1-595): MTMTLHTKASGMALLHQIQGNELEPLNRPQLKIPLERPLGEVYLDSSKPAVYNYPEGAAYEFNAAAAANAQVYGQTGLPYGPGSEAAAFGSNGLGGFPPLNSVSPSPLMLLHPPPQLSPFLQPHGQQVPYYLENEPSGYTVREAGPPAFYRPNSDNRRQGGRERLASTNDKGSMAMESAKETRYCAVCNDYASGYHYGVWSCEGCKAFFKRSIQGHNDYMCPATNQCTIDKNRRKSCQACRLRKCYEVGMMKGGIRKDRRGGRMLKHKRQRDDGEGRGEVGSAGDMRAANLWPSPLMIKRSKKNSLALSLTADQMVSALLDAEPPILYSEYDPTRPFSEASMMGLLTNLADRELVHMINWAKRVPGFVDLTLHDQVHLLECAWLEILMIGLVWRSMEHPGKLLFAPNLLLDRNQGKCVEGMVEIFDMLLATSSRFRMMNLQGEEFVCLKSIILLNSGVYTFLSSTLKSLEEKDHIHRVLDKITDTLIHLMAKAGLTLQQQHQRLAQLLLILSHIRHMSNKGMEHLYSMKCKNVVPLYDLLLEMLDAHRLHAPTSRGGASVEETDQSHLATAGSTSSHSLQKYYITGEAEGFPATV

C[C@]12CC[C@@H]3c4ccc(O)cc4C[C@@H](CCCCCCCCC[S+]([O-])CCCC(F)(F)C(F)(F)F)[C@H]3[C@@H]1CC[C@@H]2O (some centres unmarked) [FUL, fulvestrant]
blockade of ERα-stimulated activity by E2 (10^−6 M FUL with 10^−9 M E2, MCF-7 cells on array): complete blockade
effect on expression of the pLUC plasmid (CMV promoter) (MCF-7 cells on array, 10^−9 M E2 or 10^−9 M E2+10^−6 M FUL): lowered

Reference: patent publication US20080108513A1, “Cellular Arrays” (Northwestern University, priority 2006, published 2008)
